Peptide text beside a SMILES is read from it.
Assays:
rat intestinal DPP-IV = biological target: T1, rat intestinal DPP-IV (Rattus norvegicus, UniProt P14740); experiment: In vitro DPP-IV inhibitory activity of synthetic peptides; type: biochemical; details: rat intestinal DPP-IV 0.1 U/mL; 0.1 mol/L Tris-HCl pH 7.0; 20 min pre-incubation at 37 °C; glycine-proline-p-nitroanilide 6.4 mmol/L (5 μL); 20 min reaction at 37 °C; absorbance 405 nm; mean ± SD, three replicates; read-out: IC50 value for DPP-IV inhibition
T1 construct: 10 μL of rat intestinal DPP-IV (0.1 U/mL in the assay); from tissue; host or cells: rat intestine
Procedure: Selected synthetic peptides (Bio-Fab Research, Rome, Italy) were then tested for their DPP-IV-inhibitory activity as reported in Tagliazucchi et al.. Briefly, 145 μL of 0.1 mol/L Tris-HCl buffer (pH 7.0) were mixed with 10 μL of rat intestinal DPP-IV (0.1 U/mL in the assay) and 40 μL of synthetic peptides at different concentrations, in a 96-well plate. The reaction was started after 20 min of pre-incubation at 37 °C by the addition of 5 μL of 6.4 mmol/L glycine-proline-p-nitroanilide. After a further 20 min of reaction at 37 °C, the amount of released p-nitroanilide was measured by reading the absorbance at 405 nm in a microplate reader. Results were expressed as IC50 values (peptide concentration that inhibit the 50% of the enzymatic activity) by plotting the peptide concentration (base-10 logarithm) as a function of the enzyme inhibition percentage.
All data are reported as mean ± standard deviation (SD) for three replicates for each prepared sample. GraphPad Prism 6.0 (GraphPad Software, San Diego, CA, USA) was used for univariate analysis of variance (ANOVA) with Tukey post-hoc test. The differences were considered significant when p < 0.05.

[1] = test system: Dipeptidyl peptidase IV (DPP-IV); details: Parmigiano Reggiano peptides, previous study; cited from earlier work
Text: Table 1 Peptides with previously reported biological activity identified in in vitro-digested Pinto bean protein extract. | column: Bioactivity ^1 || The described approach was applied in a previous study on Parmigiano Reggiano samples allowing the selection of 6 candidates to be tested in vitro starting from a pool of 415 peptides identified by peptidomics techniques. […] The high inhibitory potency of SAPI was probably due to the combined presence of an A residue in second position and a P residue in third position. […] The PepSite2 server was used to predict the possible interaction between SAPI and the DPP-IV binding sites by analyzing the enzyme active site residues closer to the peptide amino ...

T1 sequence (P14740 whole entry): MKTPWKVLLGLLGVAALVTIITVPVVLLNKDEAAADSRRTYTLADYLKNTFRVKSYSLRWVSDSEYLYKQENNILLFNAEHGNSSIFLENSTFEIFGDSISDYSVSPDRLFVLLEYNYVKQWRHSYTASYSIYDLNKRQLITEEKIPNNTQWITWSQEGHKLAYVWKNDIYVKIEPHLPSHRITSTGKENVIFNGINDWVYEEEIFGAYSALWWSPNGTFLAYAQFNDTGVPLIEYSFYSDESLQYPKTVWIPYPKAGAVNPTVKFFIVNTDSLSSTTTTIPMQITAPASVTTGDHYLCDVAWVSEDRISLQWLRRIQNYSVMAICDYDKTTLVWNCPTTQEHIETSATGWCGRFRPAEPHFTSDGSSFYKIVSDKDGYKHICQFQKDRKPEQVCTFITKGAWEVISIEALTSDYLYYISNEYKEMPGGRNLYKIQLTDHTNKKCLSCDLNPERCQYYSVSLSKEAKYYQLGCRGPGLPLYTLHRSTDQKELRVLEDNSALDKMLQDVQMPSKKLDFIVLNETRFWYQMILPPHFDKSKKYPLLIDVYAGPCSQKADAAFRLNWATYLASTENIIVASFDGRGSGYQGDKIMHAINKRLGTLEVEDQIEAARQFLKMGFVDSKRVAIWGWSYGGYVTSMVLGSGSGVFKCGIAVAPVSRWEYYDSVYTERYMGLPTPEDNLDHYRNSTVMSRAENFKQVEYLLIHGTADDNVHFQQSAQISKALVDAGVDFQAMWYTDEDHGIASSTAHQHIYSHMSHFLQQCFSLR

| Compound | IC50 (rat intestinal DPP-IV) | DPP-IV inhibition (in words) [1] |
| --- | --- | --- |
| CC(C)[C@H](NC(=O)[C@@H](N)Cc1ccccc1)C(=O)N1CCC[C@H]1C(=O)N[C@@H](Cc1c[nH]cn1)C(=O)O [FVPH] (H-FVPH-OH) | 480.6 ± 2.1 µM |  |
| CC[C@H](C)[C@H](NC(=O)[C@@H]1CCCN1C(=O)[C@H](C)NC(=O)[C@@H](N)CO)C(=O)O [SAPI] (H-SAPI-OH) | 57.7 µM |  |
| CC[C@H](C)[C@H](NC(=O)[C@@H](N)CO)C(=O)N1CCC[C@H]1C(=O)N[C@@H](CCCNC(=N)N)C(=O)O [SIPR] (H-SIPR-OH) | 189 ± 1.5 µM |  |
| APFPE |  | novel potent DPP-IV inhibitor |

From PMC8929122, “Application of a Combined Peptidomics and In Silico Approach for the Identification of Novel Dipeptidyl Peptidase-IV-Inhibitory Peptides in In Vitro Digested Pinto Bean Protein Extract” (Current Issues in Molecular Biology, 2021)
